Consider one compound from BindingDB's records for doi:10.1021/jm0603116 (Infinity Pharmaceuticals, 2006).

This assay has as its target Endoplasmin (Canis lupus familiaris, UniProt P41148). The assay is described as follows: Inhibition of BODIPY-AG binding to dog Grp94.

Sequence of Endoplasmin (P41148 whole entry): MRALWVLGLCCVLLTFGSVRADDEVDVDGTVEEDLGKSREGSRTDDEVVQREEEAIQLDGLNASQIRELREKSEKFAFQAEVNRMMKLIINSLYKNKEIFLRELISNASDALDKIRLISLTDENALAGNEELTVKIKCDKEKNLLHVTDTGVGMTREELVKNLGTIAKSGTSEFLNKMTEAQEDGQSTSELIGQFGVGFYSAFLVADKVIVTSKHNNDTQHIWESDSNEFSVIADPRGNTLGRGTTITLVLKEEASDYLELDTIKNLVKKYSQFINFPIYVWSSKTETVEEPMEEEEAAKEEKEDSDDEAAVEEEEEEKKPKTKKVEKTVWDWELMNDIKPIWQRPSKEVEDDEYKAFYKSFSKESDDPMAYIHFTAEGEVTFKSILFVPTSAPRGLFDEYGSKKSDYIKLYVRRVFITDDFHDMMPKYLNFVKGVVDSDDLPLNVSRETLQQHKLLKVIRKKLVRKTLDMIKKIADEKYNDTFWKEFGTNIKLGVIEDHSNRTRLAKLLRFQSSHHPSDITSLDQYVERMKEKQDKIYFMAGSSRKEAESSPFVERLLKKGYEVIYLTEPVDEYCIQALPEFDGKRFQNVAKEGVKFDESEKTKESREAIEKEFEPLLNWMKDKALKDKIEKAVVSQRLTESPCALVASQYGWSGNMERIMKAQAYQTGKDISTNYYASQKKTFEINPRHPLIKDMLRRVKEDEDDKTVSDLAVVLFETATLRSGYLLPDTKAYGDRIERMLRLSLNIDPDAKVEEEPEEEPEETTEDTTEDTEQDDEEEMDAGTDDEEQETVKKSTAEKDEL

A word on the EC50: it is the concentration at which the effect is half-maximal. In turn, `CO[C@H]1C=CC=C(C)C(=O)Nc2cc(O)c(N)c(c2O)C=C(C)C[C@H](OC)[C@H](O)[C@@H](C)/C=C(\C)[C@@H]1OC(N)=O` [17-amino-17-demethoxygeldanamycin] registered an EC50 of 48 nM.
